Results on 20 molecules are retold here after patent US20160002248A1, “GLS1 INHIBITORS FOR TREATING DISEASE” (Board of Regents, The University of Texas System, priority 2014, published 2016).

Experiment [1] has as its system A549 cells. Kind of experiment: Proliferation Assay (A549 cell viability, Cell Titer Fluor). The experiment is classed as cell-based. The conditions noted are these: Homo sapiens, 72 hours. The method, then: A549 cells were routinely maintained in RPMI 1640 media (Gibco catalog number 11875-093) supplemented with 10% dialyzed fetal bovine serum using a humidified incubator (37° C., 5% CO2 and ambient O2). In preparation for the viability assay, cells were inoculated into 384-well black CulturPlates (Perkin Elmer) at a density of 1000 cells/well in a volume of 40 uL. Following a 24-hour incubation at 37° C., 5% CO2 and ambient O2, cells were treated with compound (10 uL) in a final DMSO concentration of 0.5% (v/v). The microplates were then incubated for 72 hours (37° C., 5% CO2 and ambient O2). Cell Titer Fluor (Promega) was subsequently added (10 uL of 6× reagent) and mixed for 15 minutes at room temperature. The plates were then incubated for 30 minutes (37° C., 5% CO2 and ambient O2) and fluorescence was subsequently read on the Perkin Elmer Envision plate reader. EC50 values were calculated using a four-parameter logistic curve fit.

For experiment [2], the target named is T1, purified recombinant human GAC (GLS1) (Homo sapiens, UniProt O94925).
T1 sequence (O94925 55-598 isoform O94925-3 limits assumed): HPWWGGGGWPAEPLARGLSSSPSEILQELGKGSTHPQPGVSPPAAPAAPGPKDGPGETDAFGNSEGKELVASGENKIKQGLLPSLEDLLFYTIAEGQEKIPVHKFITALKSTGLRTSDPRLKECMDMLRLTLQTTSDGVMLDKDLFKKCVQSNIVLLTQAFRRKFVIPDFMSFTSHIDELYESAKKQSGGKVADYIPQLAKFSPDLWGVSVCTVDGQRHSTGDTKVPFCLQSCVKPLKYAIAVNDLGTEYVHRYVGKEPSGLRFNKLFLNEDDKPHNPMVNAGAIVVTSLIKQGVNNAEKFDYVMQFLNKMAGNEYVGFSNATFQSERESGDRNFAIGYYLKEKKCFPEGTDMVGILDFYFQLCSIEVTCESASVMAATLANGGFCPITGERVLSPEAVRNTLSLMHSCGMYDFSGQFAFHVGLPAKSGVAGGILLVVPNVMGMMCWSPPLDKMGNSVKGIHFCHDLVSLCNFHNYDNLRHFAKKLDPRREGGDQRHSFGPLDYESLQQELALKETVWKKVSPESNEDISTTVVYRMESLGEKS
Kind of experiment: GLS1 Enzymatic Activity Assay (dual-coupled enzymatic assay). The format is biochemical. The method, then:
GLS1 Enzymatic Activity Assay
The inhibition of purified recombinant human GAC by varying concentrations of inhibitors is assessed via a dual-coupled enzymatic assay. The glutamate produced by the glutaminase reaction is used by glutamate oxidase to produce α-ketoglutarate, ammonia, and hydrogen peroxide, with this hydrogen peroxide subsequently being used by horseradish peroxidase to produce resorufin in the presence of Amplex UltraRed. The assay buffer consisted of 50 mM Hepes (pH 7.4), 0.25 mM EDTA and 0.1 mM Triton X-100. GAC was incubated with potassium phosphate (10 minutes at room temperature) prior to incubation with inhibitor (10 minutes at room temperature). The final reaction conditions were as follows: 2 nM GAC, 50 mM potassium phosphate, 100 mU/mL glutamate oxidase (Sigma), 1 mM glutamine (Sigma), 100 mU/mL horseradish peroxidase (Sigma), 75 μM Amplex UltraRed (Life Technologies), and 1% (v/v) DMSO. The production of resorufin was monitored on a Perkin Elmer Envision plate reader (excitation 530 nm, emission 590 nm) either in a kinetics or endpoint mode (at 20 minutes). IC50 values were calculated using a four-parameter logistic curve fit.

Broadly, the pEC50 is the negative decadic logarithm of the EC50, by convention in mol/L. Read a high pEC50 as a low EC50. Usually pIC50 stands for −log10 of the IC50, conventionally taken in molar units.

pEC50, pIC50: −log10 of the molar value.

In turn, `Cc1ccc(CNC(=O)c2cn(CC(F)CCc3cc4cc(-c5ccccc5F)[nH]c4nn3)nn2)cn1` (stereo not shown) [Example 241, 1-(2-fluoro-4-(6-(2-fluorophenyl)-7H-pyrrolo[2,3-c]pyridazin-3-yl)butyl)-N-((6-methylpyridin-3-yl)methyl)-1H-1,2,3-triazole-4-carboxamide] gave a pEC50 in experiment [1] above 7.00. Also, the pIC50 in experiment [2] is above 7.00.
Take `O=C(NCc1cc(OC(F)(F)F)ccc1F)c1cn(CCCCc2cc3c(Cc4ccccn4)c(C4CC4)[nH]c3nn2)nn1` [Example 127, 1-{4-[6-cyclopropyl-5-(pyridin-2-ylmethyl)-7H-pyrrolo[2,3-c]pyridazin-3-yl]butyl}-N-{[2-fluoro-5-(trifluoromethoxy)phenyl]methyl}-1H-1,2,3-triazole-4-carboxamide]: the pEC50 in experiment [1] was 6.30 to 7.00. Besides, in experiment [2], the pIC50 was above 7.00.
The like results for `O=C(Cc1ccccn1)Nc1nnc(CCCCc2cc3cc(Cc4ccccc4)[nH]c3nn2)s1` [Example 26, N-[5-(4-{6-benzyl-7H-pyrrolo[2,3-c]pyridazin-3-yl}butyl)-1,3,4-thiadiazol-2-yl]-2-(pyridin-2-yl)acetamide] were, in that order, 6.30 to 7.00 and above 7.00.
Taken in the same sequence, the figures for `O=C(NCC1CC1)c1nnc(CCCCc2cc3cc(Cc4ccccc4)[nH]c3nn2)s1` [Example 77, 5-(4-{6-benzyl-7H-pyrrolo[2,3-c]pyridazin-3-yl}butyl)-N-(cyclopropylmethyl)-1,3,4-thiadiazole-2-carboxamide] were 5.30 to 6.30 and 6.30 to 7.00.
`Cc1ccc(CNC(=O)c2cn(CCCCc3cc4c(-c5ccc(OC(F)(F)F)cc5)c(C5CC5)[nH]c4nn3)nn2)cn1` [Example 165, 1-(4-{6-cyclopropyl-5-[4-(trifluoromethoxy)phenyl]-7H-pyrrolo[2,3-c]pyridazin-3-yl}butyl)-N-[(6-methylpyridin-3-yl)methyl]-1H-1,2,3-triazole-4-carboxamide] had a pEC50 in experiment [1] of 6.30 to 7.00. In experiment [2], the pIC50 was above 7.00.
Taken in the same sequence, the figures for `CC(C)OC(=O)N1CC(c2cc3cc(CCCCn4cc(C(=O)NCc5ccc(C(F)(F)F)cn5)nn4)nnc3[nH]2)C1` [Example 206, propan-2-yl 3-(3-{4-[4-({[5-(trifluoromethyl)pyridin-2-yl]methyl}carbamoyl)-1H-1,2,3-triazol-1-yl]butyl}-7H-pyrrolo[2,3-c]pyridazin-6-yl)azetidine-1-carboxylate] were 6.30 to 7.00 and above 7.00.
In turn, `O=C(NCc1ccccn1)c1nnc(CCCCc2cc3cc(Cc4ccccc4)[nH]c3nn2)s1` [Example 74, 5-(4-{6-benzyl-7H-pyrrolo[2,3-c]pyridazin-3-yl}butyl)-N-(pyridin-2-ylmethyl)-1,3,4-thiadiazole-2-carboxamide] gave a pEC50 in experiment [1] of 6.30 to 7.00. The pIC50 in experiment [2] was above 7.00.
Turning to `O=C(NCc1cccc(C(F)(F)F)n1)c1cn(CCCCc2cc3c(-c4ccoc4)c(C4CC4)[nH]c3nn2)nn1` [Example 186, 1-{4-[6-cyclopropyl-5-(furan-3-yl)-7H-pyrrolo[2,3-c]pyridazin-3-yl]butyl}-N-{[6-(trifluoromethyl)pyridin-2-yl]methyl}-1H-1,2,3-triazole-4-carboxamide], the pEC50 in experiment [1] was above 7.00. Also, the pIC50 in experiment [2] was above 7.00.
In experiment [1], `O=C(NCc1cccc(C(F)(F)F)n1)c1cn(CCCCc2cc3c(C4CC4)c(C4CC4)[nH]c3nn2)nn1` [Example 211, 1-(4-{5,6-dicyclopropyl-7H-pyrrolo[2,3-c]pyridazin-3-yl}butyl)-N-{[6-(trifluoromethyl)pyridin-2-yl]methyl}-1H-1,2,3-triazole-4-carboxamide] had a pEC50 of 6.30 to 7.00. Also, the pIC50 in experiment [2] was above 7.00.
`O=C(NCc1ccccn1)c1cn(CCCCc2cc3cc(CC4CCCCC4)[nH]c3nn2)nn1` [Example 85, 1-(4-(6-(cyclohexylmethyl)-7H-pyrrolo[2,3-c]pyridazin-3-yl)butyl)-N-(pyridin-2-ylmethyl)-1H-1,2,3-triazole-4-carboxamide] showed a pEC50 in experiment [1] above 7.00. Also, the pIC50 in experiment [2] was above 7.00.
Take `Cc1ccc(CNC(=O)c2cn(CCCCc3cc4cc(Cc5ccccc5)[nH]c4nn3)nn2)cn1` [Example 92, 1-(4-{6-benzyl-7H-pyrrolo[2,3-c]pyridazin-3-yl}butyl)-N-[(6-methylpyridin-3-yl)methyl]-1H-1,2,3-triazole-4-carboxamide]: the pEC50 in experiment [1] was 6.30 to 7.00. For the same molecule, the pIC50 in experiment [2] is above 7.00.
Taken in the same sequence, the figures for `CC(C)Cc1c(C2CC2)[nH]c2nnc(CCCCn3cc(C(=O)NCc4ccccn4)nn3)cc12` [Example 110, 1-{4-[6-cyclopropyl-5-(2-methylpropyl)-7H-pyrrolo[2,3-c]pyridazin-3-yl]butyl}-N-(pyridin-2-ylmethyl)-1H-1,2,3-triazole-4-carboxamide] were 6.30 to 7.00 and above 7.00.
Taken in the same sequence, the figures for `CC(C)CNC(=O)c1cn(CCCCc2cc3cc(Cc4ccccc4)[nH]c3nn2)nn1` [Example 65, 1-(4-{6-benzyl-7H-pyrrolo[2,3-c]pyridazin-3-yl}butyl)-N-(2-methylpropyl)-1H-1,2,3-triazole-4-carboxamide] were 6.30 to 7.00 and 5.30 to 6.30.
In the case of `Cc1cc(CNC(=O)c2cn(CCCCc3cc4cc(C5CC5)[nH]c4nn3)nn2)nn1C` [Example 50, 1-(4-{6-cyclopropyl-7H-pyrrolo[2,3-c]pyridazin-3-yl}butyl)-N-[(1,5-dimethyl-1H-pyrazol-3-yl)methyl]-1H-1,2,3-triazole-4-carboxamide], in experiment [1], the pEC50 is 5.30 to 6.30. For the same molecule, in experiment [2], the pIC50 is 6.30 to 7.00.
Taken in the same sequence, the figures for `O=C(NCc1cc(OC(F)(F)F)ccc1F)c1cn(CCCCc2cc3cc(C4CN(C(=O)C5CCC5)C4)[nH]c3nn2)nn1` [Example 223, 1-{4-[6-(1-cyclobutanecarbonylazetidin-3-yl)-7H-pyrrolo[2,3-c]pyridazin-3-yl]butyl}-N-{[2-fluoro-5-(trifluoromethoxy)phenyl]methyl}-1H-1,2,3-triazole-4-carboxamide] were above 7.00 and above 7.00.
Taken in the same sequence, the figures for `O=C(NCc1ccncc1)c1nnc(CCCCc2cc3cc(Cc4ccccc4)[nH]c3nn2)s1` [Example 75, 5-(4-{6-benzyl-7H-pyrrolo[2,3-c]pyridazin-3-yl}butyl)-N-(pyridin-4-ylmethyl)-1,3,4-thiadiazole-2-carboxamide] were 5.30 to 6.30 and 6.30 to 7.00.
The like results for `O=C(NCC1CCOCC1)c1nnc(CCCCc2cc3cc(Cc4ccccc4)[nH]c3nn2)s1` [Example 78, 5-(4-{6-benzyl-7H-pyrrolo[2,3-c]pyridazin-3-yl}butyl)-N-(oxan-4-ylmethyl)-1,3,4-thiadiazole-2-carboxamide] were, in that order, 5.30 to 6.30 and 6.30 to 7.00.
Molecule `O=C(NCc1cc(C(F)(F)F)ccn1)c1cn(CCCCc2cc3cc(-c4ccccc4F)[nH]c3nn2)nn1` [Example 191] had a pEC50 in experiment [1] of 6.30 to 7.00. Also, in experiment [2], the pIC50 was above 7.00.
The like results for `CC(C)(O)c1ccc(CNC(=O)c2cn(CCCCc3cc4c(-c5cccc(C(F)(F)F)c5)c(C5CC5)[nH]c4nn3)nn2)cn1` [Example 166, 1-(4-{6-cyclopropyl-5-[3-(trifluoromethyl)phenyl]-7H-pyrrolo[2,3-c]pyridazin-3-yl}butyl)-N-{[6-(2-hydroxypropan-2-yl)pyridin-3-yl]methyl}-1H-1,2,3-triazole-4-carboxamide] were, in that order, 6.30 to 7.00 and above 7.00.
Taken in the same sequence, the figures for `Cc1ccc(CNC(=O)c2cn(CCCCc3cc4c(-c5cccc(CNS(C)(=O)=O)c5)c(C5CC5)[nH]c4nn3)nn2)cn1` [Example 159, 1-(4-{6-cyclopropyl-5-[3-(methanesulfonamidomethyl)phenyl]-7H-pyrrolo[2,3-c]pyridazin-3-yl}butyl)-N-[(6-methylpyridin-3-yl)methyl]-1H-1,2,3-triazole-4-carboxamide] were 5.30 to 6.30 and above 7.00.
